How the values were obtained:
[1] = system: Rat; experiment: concentration in plasma after dosing; details: dosed: 2-Hydroxy-4-methoxybenzophenone, 500 mg/kg, oral, Female, F344
[2] = system: Mouse; experiment: concentration in plasma after dosing; details: 0.25 h; dosed: 2-Hydroxy-4-methoxybenzophenone; 250 mg/kg; oral; Male; B6C3F1
[3] = system: Rat; experiment: concentration in plasma after dosing; details: dosed: 2-Hydroxy-4-methoxybenzophenone, 100 mg/kg, oral, Female, F344
[4] = system: Mouse; experiment: concentration in plasma after dosing; details: 10 min; dosed: 2-Hydroxy-4-methoxybenzophenone; 250 mg/kg; oral; Male; B6C3F1
[5] = system: Mouse; experiment: concentration in plasma after dosing; details: dosed: 2-Hydroxy-4-methoxybenzophenone, B6C3F1
[6] = system: Mouse; experiment: concentration in plasma after dosing; details: 2 h; dosed: 2-Hydroxy-4-methoxybenzophenone; 50 mg/kg; iv; Male; B6C3F1
[7] = system: Rat; experiment: concentration in plasma after dosing; details: dosed: Methyleugenol, 37 mg/kg, iv, Female, F344
[8] = system: Rat; experiment: concentration in plasma after dosing; details: dosed: Methyleugenol, 37 mg/kg, oral, Male, F344/N
[9] = system: Rat; experiment: concentration in kidney after dosing; details: 12 h; dosed: Perfluorohexane-1-sulphonic acid – potassium salt; 16 mg/kg; oral; Female; Harlan Sprague Dawley
[10] = system: Rat; experiment: concentration in brain after dosing; details: 24 h; dosed: Perfluorohexane-1-sulphonic acid – potassium salt; 16 mg/kg; oral; Female; F344
[11] = system: Rat; experiment: concentration in brain after dosing; details: 12 h; dosed: Perfluorohexane-1-sulphonic acid – potassium salt; 16 mg/kg; oral; Female; Harlan Sprague Dawley
[12] = system: Rat; experiment: concentration in liver after dosing; details: 192 h; dosed: Perfluorohexane-1-sulphonic acid – potassium salt; 16 mg/kg; oral; Female; F344
[13] = system: Rat; experiment: concentration in kidney after dosing; details: 528 h; dosed: Perfluorohexane-1-sulphonic acid – potassium salt; 16 mg/kg; oral; Female; F344
[14] = system: Rat; experiment: concentration in kidney after dosing; details: 3 h; dosed: Perfluorohexane-1-sulphonic acid – potassium salt; 16 mg/kg; oral; Female; F344
[15] = system: Rat; experiment: concentration in plasma after dosing; details: dosed: Perfluorohexane-1-sulphonic acid – potassium salt, 4 mg/kg, oral, Male, F344
[16] = system: Rat; experiment: concentration in plasma after dosing; details: 9 h; dosed: Primidone; 130 mg/kg; oral; Male; F344
[17] = system: Rat; experiment: concentration in plasma after dosing; details: 0.5 h; dosed: Primidone; 130 mg/kg; oral; Male; Harlan Sprague Dawley
[18] = system: Rat; experiment: concentration in plasma after dosing; details: 0.25 h; dosed: Primidone; 30 mg/kg; oral; Male; F344
[19] = system: Rat; experiment: concentration in plasma after dosing; details: 12 h; dosed: Primidone; 130 mg/kg; oral; Female; F344
[20] = system: Rat; experiment: concentration in plasma after dosing; details: dosed: Pyridine, 5 mg/kg, iv, Male, F344
[21] = system: Rat; experiment: concentration in plasma after dosing; details: dosed: Pyridine, 25 mg/kg, oral, Male, F344
[22] = system: Rat; experiment: concentration in plasma after dosing; details: 3 h; dosed: alpha-Thujone; 50 mg/kg; oral; Female; Harlan Sprague Dawley
[23] = system: Rat; experiment: concentration in plasma after dosing; details: 12 h; dosed: alpha-Thujone; 50 mg/kg; oral; Female; Harlan Sprague Dawley
[24] = system: Rat; experiment: concentration in plasma after dosing; details: 6 h; dosed: alpha-Thujone; 25 mg/kg; oral; Male; Harlan Sprague Dawley

O=C(c1ccccc1)c1ccc(O)cc1O [2,4-Dihydroxybenzophenone]
concentration in plasma [ng/mL]
Details	0.5 h	5 h	12 h
[1]	675	–	221
[3]	255	46.6	–

Details	concentration in plasma [ng/mL]
[2]	1490
[4]	415
[6]	217

concentration in plasma [ng/mL], [5]
Details	0.25 h	2 h	2.5 min	3 h	10 min
50 mg/kg, iv, Female	800	44.6	–	63.1	1700
50 mg/kg, iv, Male	1440	230	–	70.5	3710
100 mg/kg, oral, Female	721	61.9	44	50.2	383
100 mg/kg, oral, Male	171	320	120	109	195
250 mg/kg, oral, Female	1340	185	71.2	120	1840
250 mg/kg, oral, Male	988	338	115	265	542
500 mg/kg, oral, Female	3280	309	–	–	2800
500 mg/kg, oral, Male	1510	282	–	–	1110

C=CCc1ccc(OC)c(OC)c1 [Methyleugenol]
concentration in plasma [ng/mL]
Details	2 h	3 h	5 min
[7]	–	158	28900
[8]	41.7	–	191

O=S(=O)([O-])C(F)(F)C(F)(F)C(F)(F)C(F)(F)C(F)(F)C(F)(F)F.[K+] [Perfluorohexane-1-sulphonic acid – potassium salt]
Details	concentration in brain [ng/g]	concentration in kidney [ng/g]	concentration in liver [ng/g]
[9]	–	31200	–
[10]	1390	–	–
[11]	1140	–	–
[12]	–	–	38200
[13]	–	8530	–
[14]	–	18100	–

[15]
Details	concentration in plasma [ng/mL]
1 h	18800
12 h	32300
864 h	6150

CCC1(c2ccccc2)C(=O)NCNC1=O [Primidone]
Details	concentration in plasma [ng/mL]
[16]	10400
[17]	47900
[18]	7800
[19]	3100

c1ccncc1 [Pyridine]
concentration in plasma [ng/mL]
Details	0.25 h	4 h	5 min	6 h
[20]	3730	–	–	1300
[21]	–	15900	7460	–

CC(C)[C@]12CC(=O)[C@H](C)[C@H]1C2 [alpha-Thujone]
Details	concentration in plasma [ng/mL]
[22]	244
[23]	23.1
[24]	68.6

From EPA's CvTdb concentration-time database
